In US5091539A, “Azolyl cycloalkanol derivatives and agricultural fungicides” (Shionogi & Co., Ltd., priority 1984, dated 1992):
≈ marks a conversion by molar mass, not a printed value.

What was measured:
[1] = test system: Botrytis cinerea; test: Control test of Botrytis rot (gray mold) of cucumber; assay type: in vivo
Description: (1) Seedlings of cucumber (Cultivar: Matsukaze) were planted in a pot of 9 cm in diameter. The first leaf was sprayed with 3 ml each of solutions containing the test compound at the concentration of 125 or 31.3 ppm and the plant was dried by the air. After inoculation of the spores of Botrytis cinerea, the plants were kept at 20°±2° C. and 90-100% humidity ((i) protective spraying). Alternatively, the spores were inoculated at first and when the leaves suffered a little (about 2 days after), the solutions of the test compounds were sprayed ((ii) curative spraying). Evaluation was practised 3 days after the inoculation. Percent disease control was calculated by the ratio of diameter of diseased area in treated and untreated plants.
(§1) (1) Test methods and evaluation are the same as those in Tests 2, 4 and 6.

[2] = test system: Sclerotinia sclerotiorum; test: Control test to Sclerotinia rot of cucumber; assay type: in vivo
Description: (1) This test was practised in the same manner as in the above test, control test of Botrytis rot (gray mold) of cucumber, except for using the mycelium of Sclerotinia sclerotiorum as inoculm. The same as in test 2.

[3] = test system: Sphaerotheca fuliginea; test: Control test to powdery mildew of cucumber (foliar and soil treatment); assay type: in vivo; details: for Foliar Treatment, Curative Effect / Foliar Treatment, Protective Effect / Soil Treatment, Protective Effect: index 0-10
Description: (1) Seeds of cucumber (Cultivar: Matsukaze) were sown in a pot of 9 cm in diameter and the pots were kept in a green house until the plant was grown for 2-3 leaf stage. The first leaf was sprayed with, (i) 3 ml each of solutions containing the test compound at the prescribed concetrations and dried by the air (foliar treatment). Inoculation of spore suspension of Sphaerotheca fuliginea by spraying was practised 2 days before the treatment (curative effect) or 1 day after the treatment (protective effect). Alternatively, (ii) 5 ml of the solution was applied at the root of the seedlings (soil treatment). The pots were kept in a greenhouse for 2 days and inoculation was practised in the same manner noted above. (iii) After sprayed with 3 ml of a solution of the test compound at a concentration of 125 ppm and dried by the air, the treated pots were set in a greenhouse. Untreated pots were placed next to the treated pots. Those treated and untreated plants were inoculated with spore suspension. Protective effect of the test compounds by vapor was thus checked. The effect was examined 14 days after the inoculation of the spores.
0: Disease sign is observed on the whole leaf.
3: Disease sign is observed on the leaf in about 50%.
5: Disease sign is observed on the leaf in about 30%.
7: Disease sign is observed on the leaf in about 20%.
9: a little disease sign is observed.
as §1

[4] = test system: Alternaria kikuchiana; test: Anti-fungal activity in vitro; assay type: cell-based; details: 48 h, GY medium, 28° C., 2 days, spore suspension
Description: (§2) (1) Each test compound was diluted by two-fold dilution with GY medium (2% glucose and 0.4% yeast extract) containing 0.01% Tween 80 (trademark). Every diluted solution was inoculated with spore suspension (10^5-5 spores/ml) of Alternaria kikuchiana or a hyphae disk with agar (4 mm in diameter) of other fungi and incubated at 28° C. for 2 days.

[5] = test system: Cladosporium herbarum; test: Anti-fungal activity in vitro; assay type: cell-based; details: 48 h, GY medium, 28° C., 2 days
Description: as §2

[6] = test system: Cochiobolus sativus; test: Anti-fungal activity in vitro; assay type: cell-based; details: 48 h; GY medium, 28° C., 2 days
Description: as §2

[7] = test system: Corticium rolfsii; test: Anti-fungal activity in vitro; assay type: cell-based; details: Agroathelia rolfsii, 48 h; GY medium, 28° C., 2 days
Description: as §2

[8] = test system: Diaporthe citri; test: Anti-fungal activity in vitro; assay type: cell-based; details: 48 h, GY medium, 28° C., 2 days
Description: as §2

[9] = test system: Monilinia fructicola; test: Anti-fungal activity in vitro; assay type: cell-based; details: 48 h, GY medium, 28° C., 2 days
Description: as §2

[10] = test system: Pyrenophora graminea; test: Anti-fungal activity in vitro; assay type: cell-based; details: 48 h, GY medium, 28° C., 2 days
Description: as §2

[11] = test system: Ustilago nuda; test: Anti-fungal activity in vitro; assay type: cell-based; details: 48 h, GY medium, 28° C., 2 days
Description: as §2

[12] = test system: Rhizoctonia solani; test: Control test to damping-off of cucumber (Rhizoctonia solani); assay type: in vivo; details: soil drench, 14 days
Description: (§3) (1) The fungus causing damping-off of cucumber seedlings, Rhizoctonia solani or Fusarium oxysporum was cultured on a wheat bran medium at 28° C. for 5 days, which was mixed with sterilized soil and cultured for 2 days to prepare the inoculum. Sterilized soil (150 g) was put into a pot of 9 cm in diameter. The surface of the spot was covered with the above inoculum. […] Twenty cucumber seeds (Cultivar: Matsukaze) were sown 2 days after. The pots were kept at 30°±2° C. for 14 days. The infection was observed 14 days after and disease degree and percent disease degree were obtained by setting an evaluation index for each disease sympton.
(§4) (2) Evaluation [formula] wherein a: number of seeds without germination b: number of seedlings showing damping-off c: number of wilted seedlings d: number of seedlings being a little brownish in cotyledons or at the bottom of the stem e: number of uninfected seedlings [formula] wherein a: number of seeds without germination or seedlings with damping-off b: number of wilted seedlings c: number of seedlings being a little brownish in cotyledons or at the bottom of the stem d: number of uninfected seedlings [formula]

[13] = test system: Fusarium oxysporum; test: Control test to damping-off of cucumber (Fusarium oxysporum); assay type: in vivo; details: 500 ppm, soil drench, 14 days
Description: as §3, §4

[14] = test system: Vasla ceratosperma; test: Anti-fungal activity in vitro; assay type: cell-based; details: 48 h; GY medium, 28° C., 2 days
Description: as §2

[15] = test system: Puccinia coronata; test: Control test of crown rust of oat; assay type: in vivo
Description: (1) Young oats (Cultivar: Pc38) grown in pots in a greenhouse were (i) sprayed with 10 ml each of solution of the test compounds at a prescribed concentration and after air-drying, they were inoculated with 15 mg of uredospores of Puccinia coronata per 20 pots (protective spraying) or (ii) sprayed with the test solution 3 days after inoculation of uredospores. After each plant was kept at 20°-25° C. in a greenhouse for 2 weeks, number of uredia was counted on the first leaf.

| MIC [4] | MIC [5] | MIC [6] | MIC [7] | MIC [8] | MIC [9] | MIC [10] | MIC [11] | SMILES | Percent Disease Control, Curative Spraying ([2]; 31.3 ppm) | Percent Disease Control, Protective Spraying ([2]; 31.3 ppm) | Percent Disease Control, Curative Spraying ([2]; 125 ppm) | Percent Disease Control, Protective Spraying ([2]; 125 ppm) | Foliar Treatment, Curative Effect ([3]; second Table 4, 0.5 ppm) | Foliar Treatment, Protective Effect ([3]; second Table 4, 0.5 ppm) | Soil Treatment, Protective Effect ([3]; second Table 4, 0.5 ppm) | Foliar Treatment, Curative Effect ([3]; second Table 4, 2.0 ppm) | Foliar Treatment, Protective Effect ([3]; second Table 4, 2.0 ppm) | Soil Treatment, Protective Effect ([3]; second Table 4, 2.0 ppm) | Foliar Treatment, Curative Effect ([3]; second Table 4, 7.8 ppm) | Foliar Treatment, Protective Effect ([3]; second Table 4, 7.8 ppm) | further results |
| --- | --- | --- | --- | --- | --- | --- | --- | --- | --- | --- | --- | --- | --- | --- | --- | --- | --- | --- | --- | --- | --- |
| 12.5 µg/mL (≈ 42.8 µM) | 6.25 µg/mL (≈ 21.4 µM) | 6.25 µg/mL (≈ 21.4 µM) | 50 µg/mL (≈ 171 µM) | 25 µg/mL (≈ 85.7 µM) | 0.2 µg/mL (≈ 0.685 µM) | 12.5 µg/mL (≈ 42.8 µM) | 1.56 µg/mL (≈ 5.35 µM) | O[C@@]1(c2ccc(Cl)cc2)CCCCC[C@H]1n1cncn1 (relative stereo) [Compound 24, cis-1-(4-chlorophenyl)-2-(1,2,4-triazol-1-yl)cycloheptanol] | 96% | 100% | 97% | 100% | 10 | 5 (Disease sign is observed on the leaf in about 30%.) | 0 | 10 | 10 | 0 | 10 | 10 | Percent Disease Control, Curative Spraying ([1]; Table 2, 31.3 ppm): 86%; Percent Disease Control, Protective Spraying ([1]; Table 2, 31.3 ppm): 100%; Percent Disease Control, Curative Spraying ([1]; Table 2, 125 ppm): 94%; Percent Disease Control, Protective Spraying ([1]; Table 2, 125 ppm): 100%; Soil Treatment, Protective Effect ([3]; second Table 4, 7.8 ppm): 10; Foliar Treatment, Curative Effect ([3]; second Table 4, 31.3 ppm): 10; Foliar Treatment, Protective Effect ([3]; second Table 4, 31.3 ppm): 10; Soil Treatment, Protective Effect ([3]; second Table 4, 31.3 ppm): 10 |
| 25 µg/mL (≈ 70.9 µM) | – | 3.13 µg/mL (≈ 8.88 µM) | 1.56 µg/mL (≈ 4.42 µM) | 3.13 µg/mL (≈ 8.88 µM) | 1.56 µg/mL (≈ 4.42 µM) | 6.25 µg/mL (≈ 17.7 µM) | 6.25 µg/mL (≈ 17.7 µM) | O[C@@]1(c2sc(Cl)c(Cl)c2Cl)CCCC[C@H]1n1cncn1 (relative stereo) [Compound 12, cis-1-(3,4,5-trichloro-2-thienyl)-2-(1,2,4-triazol-1-yl)cyclohexanol] | – | – | – | – | – | – | – | – | – | – | – | – | Disease Degree ([12]; 500 ppm): 0; Percent Disease Control ([12]; 500 ppm): 100%; Disease Degree [13]: 17; Percent Disease Control [13]: 83%; Protective Index, Foliar Treatment ([3]; first Table 4, 125 ppm, foliar, 14 days): 10; Protective Index, Soil Treatment ([3]; first Table 4, 125 ppm, soil, 14 days): 10; MIC [14]: 3.13 µg/mL (≈ 8.88 µM) |
| 3.13 µg/mL (≈ 11.3 µM) | 1.56 µg/mL (≈ 5.62 µM) | 3.13 µg/mL (≈ 11.3 µM) | 12.5 µg/mL (≈ 45 µM) | 3.13 µg/mL (≈ 11.3 µM) | 0.39 µg/mL (≈ 1.4 µM) | 1.56 µg/mL (≈ 5.62 µM) | 3.13 µg/mL (≈ 11.3 µM) | O[C@@]1(c2ccccc2Cl)CCCC[C@H]1n1cncn1 (relative stereo) [Compound 32] | 86% | 72% | 94% | 100% | 7 (Disease sign is observed on the leaf in about 20%.) | 0 | 0 | 10 | 9 | 0 | 10 | 10 | Disease Degree ([12]; 31.3 ppm): 10; Percent Disease Control ([12]; 31.3 ppm): 90%; Soil Treatment, Protective Effect ([3]; second Table 4, 7.8 ppm): 10; Foliar Treatment, Curative Effect ([3]; second Table 4, 31.3 ppm): 10; Foliar Treatment, Protective Effect ([3]; second Table 4, 31.3 ppm): 10; Soil Treatment, Protective Effect ([3]; second Table 4, 31.3 ppm): 10 |

| SMILES | MIC [4] | MIC [5] | MIC [6] | MIC [7] | MIC [8] | MIC [9] | MIC [10] | MIC [11] | Percent Disease Control, Curative Spraying ([2]; 31.3 ppm) | Percent Disease Control, Protective Spraying ([2]; 31.3 ppm) | Percent Disease Control, Curative Spraying ([2]; 125 ppm) | Percent Disease Control, Protective Spraying ([2]; 125 ppm) | Foliar Treatment, Curative Effect ([3]; second Table 4, 0.5 ppm) | Foliar Treatment, Protective Effect ([3]; second Table 4, 0.5 ppm) | Soil Treatment, Protective Effect ([3]; second Table 4, 0.5 ppm) | Foliar Treatment, Curative Effect ([3]; second Table 4, 2.0 ppm) | Foliar Treatment, Protective Effect ([3]; second Table 4, 2.0 ppm) | Soil Treatment, Protective Effect ([3]; second Table 4, 2.0 ppm) | Foliar Treatment, Curative Effect ([3]; second Table 4, 7.8 ppm) | Foliar Treatment, Protective Effect ([3]; second Table 4, 7.8 ppm) | further results |
| --- | --- | --- | --- | --- | --- | --- | --- | --- | --- | --- | --- | --- | --- | --- | --- | --- | --- | --- | --- | --- | --- |
| OC(c1ccc(Cl)cc1)(c1cncnc1)c1ccccc1Cl (centres unmarked) [Fenarimol, reference compound] | 6.25 µg/mL (≈ 18.9 µM) | > 50 µg/mL | 1.56 µg/mL (≈ 4.71 µM) | 25 µg/mL (≈ 75.5 µM) | > 50 µg/mL | 3.13 µg/mL (≈ 9.45 µM) | 12.5 µg/mL (≈ 37.7 µM) | 25 µg/mL (≈ 75.5 µM) | – | – | – | – | – | – | – | – | – | – | – | – | Percent Disease Control, Curative Spraying ([15]; 12.5 ppm): 75%; Percent Disease Control, Protective Spraying ([15]; 12.5 ppm): 62%; Percent Disease Control, Curative Spraying ([15]; 25 ppm): 92%; Percent Disease Control, Protective Spraying ([15]; 25 ppm): 89%; Percent Disease Control, Curative Spraying ([15]; 50 ppm): 98%; Percent Disease Control, Protective Spraying ([15]; 50 ppm): 100%; MIC [14]: 12.5 µg/mL (≈ 37.7 µM) |
